Source: US8445510B2, “Fused bicyclic kinase inhibitors” (OSI Pharmaceuticals, LLC, priority 2011, dated 2013)

Columns and labels:
Assay type in all cases: cell-based
Karpas-299 cells = assay: Karpas-299 cell proliferation assay (CellTiter-Glo); details: Homo sapiens, 72 h; Karpas-299 cell line (NPM-ALK); 3 days incubation; at least duplicate experiments; read-out: Prolif. IC50
Description: The effect of inhibitors on the proliferation of Karpas-299 cells (DSMZ no. ACC 31) was determined using the following protocol. Karpas-299 cells were plated in 96-well white tissue culture treated plates (Corning 3917) in growth medium (RPMI, 10% FCS) at a density of 5000 cells/well in a total volume of 135 μL and incubated at 37° C., 5% CO2, 95% humidity overnight. The following day, one-tenth volume of a 10× concentration of compounds was added to the wells in an 8-point dilution series. Compounds were serially diluted (1:4) in DMSO from a 10 mM stock solution prior to dilution in growth media to the 10× working concentrations (5% DMSO). Final concentration of DMSO in compound-treated wells was 0.5%. Control wells containing growth media or growth media/0.5% DMSO were included in all test plates. […] Once the compounds were added to the cells, plates were incubated for 3 days at 37° C., 5% CO2 at 95% humidity. After 72 hours, all cells and reagents were equilibrated to room temperature and 15 μL of CellTiter-Glo reagent (Promega # G7573) was added to each well. Plates were shaken on a platform for 10 minutes at room temperature prior to reading luminescence. The value of the signal of the control wells was set as 100% growth and growth inhibition was expressed as percent of control. IC50 values were determined from the percent of control data using a standard four-parameter curve fit equation.
(§1) The IC50 values of exemplary compounds of the present invention determined in a cell proliferation assay using the Karpas-299 cell line according to the procedures described herein in at least duplicate experiments are abbreviated as follows and are shown in Table 5: A, IC50≦0.05 μM; B, 0.05 μM<IC50≦0.2 μM; C, 0.2 μM<IC50≦1 μM; D, IC50>1 μM; ND, not determined. The Example # of Table 5 corresponds to the compound example number as illustrated in the Examples section.
The Karpas-299 cell line has a t(2; 5) chromosomal translocation and expresses the NPM-ALK fusion protein, resulting in constitutively active ALK. […] Ther. 6(12):3314-22 (2007)]. With this “ALK-driven” cell line, the cell proliferation IC50 values can thus be used as surrogate for the p-ALK cell mechanistic IC50 values.

MKN45 cells = assay: MKN45 cell proliferation assay (CellTiter-Glo); details: Homo sapiens, MKN-45, 72 h; MKN45 cell line; 3 days incubation; at least duplicate experiments; read-out: Prolif. IC50
Description: The effect of inhibitors on the proliferation of MKN45 cells was determined using the following protocol. MKN45 cells were plated in Corning 3917 96-well white tissue culture treated plates in growth medium (RPMI, 10% FCS) at a density of 5000 cells/well in a total volume of 135 μL and incubated at 37° C., 5% CO2, 95% humidity overnight. The following day, one-tenth volume of a 10× concentration of compounds was added to the wells in an 8-point dilution series. The dilution series was composed of an initial 1:5 dilution of a 10 mM stock of compound in DMSO, followed by serial 1:4 dilutions in DMSO, then a 1:20 dilution in growth medium prior to the 1:10 dilution into the cell plate. […] The typical dilution range is 10 μM to 0.6 nM. Once the compound was added to the cells, plates were incubated for 3 days at 37° C., 5% CO2 at 95% humidity. On the third day, after allowing all cells and reagents to come to room temperature, 25 μL of CellTiter-Glo reagent (Promega #G7573) was added to the wells. Plates were shaken on a platform for 10 minutes prior to reading luminescence for 0.1 seconds. The signal of the control wells was taken as 100% growth and growth inhibition was expressed as percent of control. IC50 values were determined from the percent of control data using a standard four-parameter model.
as §1, with “the MKN45” for “the Karpas-299”, “Table 2:” for “Table 5:”, “Table 2” for “Table 5”
Treatment of this cell line with a selective c-MET inhibitor led to induction of apoptosis and inhibition of proliferation, whereas non-MET-amplified cell lines were not affected [Smolen et al., Proc. Natl. Acad. Sci. USA, 103(7):2316-2321 (2006)]. This cell line is thus “driven” by c-MET, and antiproliferative effects correlate very well with the inhibition of c-MET phosphorylation so that the cell proliferation IC50, values can be used as surrogate for the c-MET cell mechanistic IC50, values. Under the assay conditions described herein, the IC50 values correlate nearly 1:1.

RON = molecular target: T1, RON (Homo sapiens, UniProt Q04912); assay: sfRON cell mechanistic assay (HeLa), phosphorylated RON ELISA; details: HeLa cells transfected with sfRON; inhibition of phosphorylated RON; four hours incubation; at least duplicate experiments; read-out: sfRON mech IC50
T1 sequence (Q04912 913-1400): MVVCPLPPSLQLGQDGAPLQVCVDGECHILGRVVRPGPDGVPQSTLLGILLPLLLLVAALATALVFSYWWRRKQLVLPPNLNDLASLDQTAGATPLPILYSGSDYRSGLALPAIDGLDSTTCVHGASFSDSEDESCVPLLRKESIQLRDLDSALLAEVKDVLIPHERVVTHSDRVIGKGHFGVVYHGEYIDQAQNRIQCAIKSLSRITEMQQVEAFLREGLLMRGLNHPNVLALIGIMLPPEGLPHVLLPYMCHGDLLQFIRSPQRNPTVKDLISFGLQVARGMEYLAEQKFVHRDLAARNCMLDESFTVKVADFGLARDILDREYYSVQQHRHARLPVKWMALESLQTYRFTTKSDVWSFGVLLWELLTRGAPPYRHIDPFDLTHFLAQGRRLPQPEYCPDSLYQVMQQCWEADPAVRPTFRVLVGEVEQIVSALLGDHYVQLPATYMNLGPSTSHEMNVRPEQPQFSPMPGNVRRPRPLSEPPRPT
Description: The cellular activity of the compounds of the present invention against RON may be determined by the following procedure. HeLa cells were plated in Falcon 3072 96-well plates in growth media (DMEM, 10% FBS, 1% L-glutamine) at a density of 10000 cells/well and incubated at 37° C., 5% CO2 overnight. The following day, cells were transfected with 0.2 μg sfRON-pcDNA plasmid DNA with 0.5 μL Lipofectamine-2000 per well in the presence of 50 μL OPTI-MEM, incubated at 37° C., 5% CO2 overnight. Costar 3915 96-well assay plates were coated with rabbit Anti-RON antibody at 2.0 μg/mL, sealed, and incubated overnight at 4° C. On the third day, coated plates were washed with PBS and blocked with 3% BSA. For the sfRON transfected cells, one-tenth volume of a 10× concentration of compounds was added to the wells in a 6-point dilution series. The dilution series was composed of an initial 1:5 dilution of a 10 mM DMSO stock solution of compound in DMSO, followed by a 1:10 dilution in growth media, for a final DMSO concentration on cells of 0.5%. Control wells were treated with 0.5% DMSO. The typical range of dilution was 10 μM to 3 nM. Once compound was added to the cells, plates were incubated for four hours at 37° C., 5% CO2. Plates were then washed in PBS, and lysed in triton-based lysis buffer. Lysates were transferred to the blocked capture plates. The phosphorylated RON levels were measured by incubating with a Goat polyclonal antibody against phosphorylated RON ([pYpY1238/1239]) followed by an anti-Goat antibody conjugated to HRP. Signal was measured on a Wallac Victor plate reader with luminance. The DMSO signal of the control wells was defined as 100% and the percent of inhibition of phosphorylated RON was expressed as percent of control. IC50 values were determined from the percent of control data using a standard four-parameter model.
The IC50 values of exemplary compounds of the present invention determined in a sfRON cell mechanistic assay using the HeLa cell line according to the procedures described herein in at least duplicate experiments are abbreviated as follows and are shown in Table 3: A, IC50≦0.2 μM; B, 0.2 μM<IC50≦1.0 μM; C, IC50>1 μM; ND, not determined. The Example # of Table 3 corresponds to the compound example number as illustrated in the Examples section.

Compound	IC50 (Karpas-299 cells)	IC50 (MKN45 cells)	IC50 (RON)
COc1ccc(F)c(Cl)c1[C@@H](C)c1c[nH]c2ncc(-c3c(C)nn([C@H]4CC[C@H](C(=O)O)CC4)c3C)cc12 [Example 25, trans-4-(4-{3-[(1S)-1-(2-Chloro-3-fluoro-6-methoxyphenyl)ethyl]-1H-pyrrolo[2,3-b]pyridin-5-yl}-3,5-dimethyl-1H-pyrazol-1-yl)cyclohexanecarboxylic acid]	≤ 50 nM		
CCOC(=O)[C@H]1CC[C@H](n2nc(C)c(-c3cnc4[nH]cc([C@H](C)c5c(OC)ccc(F)c5Cl)c4c3)c2C)CC1 [Example 26, Ethyl trans-4-(4-{3-[(1S)-1-(2-chloro-3-fluoro-6-methoxyphenyl)ethyl]-1H-pyrrolo[2,3-b]pyridin-5-yl}-3,5-dimethyl-1H-pyrazol-1-yl)cyclohexanecarboxylate]	≤ 50 nM		
COc1ccc(F)c(Cl)c1[C@@H](C)c1c[nH]c2ncc(-c3cnn(C[C@H](O)CO)c3C(F)(F)F)cc12 [Example 36, (2S)-3-[4-{3-[(1S)-1-(2-Chloro-3-fluoro-6-methoxyphenyl)ethyl]-1H-pyrrolo[2,3-b]pyridin-5-yl}-5-(trifluoromethyl)-1H-pyrazol-1-yl]propane-1,2-diol]	200 to 1000 nM	50 to 200 nM	
COc1ccc(F)c(Cl)c1[C@@H](C)c1c[nH]c2ncc(-c3cn(C[C@H](O)CO)nc3C(F)(F)F)cc12 [Example 37, (2S)-3-[4-{3-[(1S)-1-(2-Chloro-3-fluoro-6-methoxyphenyl)ethyl]-1H-pyrrolo[2,3-b]pyridin-5-yl}-3-(trifluoromethyl)-1H-pyrazol-1-yl]propane-1,2-diol]	200 to 1000 nM	200 to 1000 nM	
COc1ccc(F)c(Cl)c1[C@@H](C)c1c[nH]c2ncc(-c3cnn([C@H]4CC[C@H](O)CC4)c3C(F)(F)F)cc12 [Example 40, trans-4-[4-{3-[(1S)-1-(2-Chloro-3-fluoro-6-methoxyphenyl)ethyl]-1H-pyrrolo[2,3-b]pyridin-5-yl}-5-(trifluoromethyl)-1H-pyrazol-1-yl]cyclohexanol]	> 1000 nM	50 to 200 nM	> 1000 nM
COc1ccc(F)c(Cl)c1[C@@H](C)c1c[nH]c2ncc(-c3cnn([C@H]4CC[C@@H](N5CCNCC5)CC4)c3C)cc12 [Example 56, 3-[(1S)-1-(2-Chloro-3-fluoro-6-methoxyphenyl)ethyl]-5-{5-methyl-1-[cis-4-(piperazin-1-yl)cyclohexyl]-1H-pyrazol-4-yl}-1H-pyrrolo[2,3-b]pyridine]	50 to 200 nM	50 to 200 nM	> 1000 nM
[2H]c1[nH]c2ncc(-c3cnn([C@H]4CC[C@H](O)CC4)c3C)cc2c1[C@H](C)c1c(OC(F)F)ccc(F)c1Cl [Example 94, trans-4-{-4-[3-{(1S)-1-[2-Chloro-6-(difluoromethoxy)-3-fluorophenyl]ethyl}(2-^2H)-1H-pyrrolo[2,3-b]pyridin-5-yl]-5-methyl-1H-pyrazol-1-yl}cyclohexanol]	≤ 50 nM	≤ 50 nM	
[2H]c1[nH]c2ncc(-c3cnn([C@H]4CC[C@H](O)CC4)c3C)cc2c1[C@@H](C)c1c(OC(F)F)ccc(F)c1Cl [Example 95, trans-4-{-4-[3-{(1R)-1-[2-Chloro-6-(difluoromethoxy)-3-fluorophenyl]-ethyl}(2-^2H)-1H-pyrrolo[2,3-b]pyridin-5-yl]-5-methyl-1H-pyrazol-1-yl}cyclohexanol]	200 to 1000 nM	200 to 1000 nM	
Cc1c(-c2cnc3[nH]cc([C@@H](C)c4c(OC(F)F)ccc(F)c4Cl)c3c2)cnn1[C@H]1CC[C@H](O)CC1 [Example 98, trans-4-[4-(3-{(1R)-1-[2-Chloro-6-(difluoromethoxy)-3-fluorophenyl]ethyl}-1H-pyrrolo[2,3-b]pyridin-5-yl)-5-methyl-1H-pyrazol-1-yl]cyclohexanol]		> 1000 nM	
Cc1c(-c2cnc3[nH]cc([C@@H](CF)c4c(Cl)ccc(F)c4Cl)c3c2)cnn1[C@H]1CC[C@H](O)CC1 [Example 117, trans-4-(4-{3-[(1R)-1-(2,6-dichloro-3-fluorophenyl)-2-fluoroethyl]-1H-pyrrolo[2,3-b]pyridin-5-yl}-5-methyl-1H-pyrazol-1-yl)cyclohexanol]	> 1000 nM	> 1000 nM	
